One may read the IC50 as the concentration that gives 50% inhibition.

Molecules are shown by their SMILES. Some results are limits rather than exact numbers.

Assay [1] relates to prostaglandin H2 (PGH2) synthase. On the set-up: method as in PMID 2495300. The following applies: via ROS production; read-out: IC50 for inhibition of prostaglandin H2 (PGH2) synthase; cited from earlier work.
Assay [2] deals with leukotriene C4 production. As to the kind of experiment: Leukotriene C4 production in IgE/antigen-stimulated RBL-2H3 cells (EIA). The class given is cell-based, rat.
Another assay addresses T1, soybean lipoxidase (Glycine max, UniProt P08170).
T1 construct: purchased Sigma-Aldrich (St. Louis, MO, USA) type V-S; host or cells: soybean (plant preparation)
T1 sequence (P08170 1-839): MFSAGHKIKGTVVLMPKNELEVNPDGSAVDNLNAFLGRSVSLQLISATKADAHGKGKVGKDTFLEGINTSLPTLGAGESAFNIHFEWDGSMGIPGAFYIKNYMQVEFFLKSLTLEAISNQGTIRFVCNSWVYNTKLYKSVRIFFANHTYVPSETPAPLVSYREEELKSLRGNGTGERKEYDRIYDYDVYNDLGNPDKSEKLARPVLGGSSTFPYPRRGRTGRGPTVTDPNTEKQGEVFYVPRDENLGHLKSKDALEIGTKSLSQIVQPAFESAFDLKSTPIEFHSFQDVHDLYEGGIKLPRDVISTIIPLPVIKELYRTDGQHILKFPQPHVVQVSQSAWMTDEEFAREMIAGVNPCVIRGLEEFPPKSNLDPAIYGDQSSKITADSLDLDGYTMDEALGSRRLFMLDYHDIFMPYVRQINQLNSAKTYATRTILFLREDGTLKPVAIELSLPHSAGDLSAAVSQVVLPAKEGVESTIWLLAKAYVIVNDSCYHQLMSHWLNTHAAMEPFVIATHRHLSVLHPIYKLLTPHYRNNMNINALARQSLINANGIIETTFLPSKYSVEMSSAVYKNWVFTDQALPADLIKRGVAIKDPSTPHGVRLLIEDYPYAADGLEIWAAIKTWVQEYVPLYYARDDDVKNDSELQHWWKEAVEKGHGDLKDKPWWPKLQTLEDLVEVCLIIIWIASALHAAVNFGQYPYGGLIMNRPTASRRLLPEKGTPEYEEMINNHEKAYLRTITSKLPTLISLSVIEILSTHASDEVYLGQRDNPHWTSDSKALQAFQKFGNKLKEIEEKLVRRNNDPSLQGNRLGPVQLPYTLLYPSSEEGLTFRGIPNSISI
As to the kind of experiment: Soybean lipoxidase inhibition, cell-free. Format: biochemical, Glicine max (L.) Merr. The following applies: mean±SEM. As for the experimental part: Lipoxidase catalyses the oxidation of linoleic acid to the conjugated diene, 13-hydroperoxy linoleic acid, which was measured spectrophotometrically at 234 nm on a UV/visible spectrophotometer (UNICAM Helios α). The blank was measured in a reaction mixture with 20 µl of individual naphthoquinones solution, 1 ml of phosphate buffer (pH 9) and 20 µl of soybean lipoxidase 500 U. After 5 min pre-incubation at room temperature, the reaction was started by addition of 50 µl of substrate (linoleic acid) at 2 mM in ethanol. The reaction time was 3 min.

In assay [3] the test system is RBL-2H3 cells. As to the kind of experiment: IgE/antigen-induced RBL-2H3 basophils' degranulation (β-hexosaminidase release). Format: cell-based, rat. The following applies: Rattus norvegicus, RBL-2H3; 5 µM; maximal inhibition, mean±SEM; read-out: Degranulation inhibition (%) IgE/antigen (decrease of β-hexosaminidase release). The method, then: RBL-2H3 cells were seeded at 3.0×10^5 cells/mL in 24-wells plate (1 mL/well), and assayed after 24h at near-confluent stage (∼90%). Two different degranulation stimuli were used: calcium ionophore A23187 500 ng/mL (1 µM) and an immunologic stimulus (100 ng/mL IgE anti-DNP followed by 100 ng/mL DNP-BSA) that we refer to as IgE/antigen (Fig. 2). […] Thus, the ability of naphthoquinones to reduce β-hexosaminidase release was quantified for both stimuli, whereas effects upon histamine were only quantified with the A23187 stimulus, given the low histamine release and poor signal to noise achieved with IgE/antigen.
When the IgE/antigen was used as stimulus, cells were incubated during 16 h with 100 ng/ml IgE anti-DNP and with individual naphthoquinones diluted in culture medium. After washing twice with Dulbecco's phosphate buffered saline (DPBS), cells were treated for 1 h, at 37°C, with 100 ng/ml DNP-BSA and with individual naphthoquinones diluted in EBSS supplemented with 0.1% BSA (Fig. 2A). After treatments, supernatants were collected in order to quantify released β-hexosaminidase and released histamine, while cell viability assay was performed on adherent cells.
The release of β-hexosaminidase from stimulated-RBL-2H3 cells was measured as previously described. In a 96-wells plate, 50 µl of substrate solution [p-nitrophenyl N-acetyl-D-glucosamine 1.3 mg/ml in citrate buffer (pH 4.5)] were added to 30 µl of supernatant. The plate was incubated at 37°C, during 1 h.

For assay [4], the system named is RBL-2H3 cells. As to the kind of experiment: Calcium ionophore A23187-induced RBL-2H3 degranulation (β-hexosaminidase release). The following applies: Rattus norvegicus, RBL-2H3; 5 µM; maximal inhibition, mean±SEM; read-out: Degranulation inhibition (%) A23187 (decrease of β-hexosaminidase release). Format: cell-based, rat. The method, then: RBL-2H3 cells were seeded at 3.0×10^5 cells/mL in 24-wells plate (1 mL/well), and assayed after 24h at near-confluent stage (∼90%). Two different degranulation stimuli were used: calcium ionophore A23187 500 ng/mL (1 µM) and an immunologic stimulus (100 ng/mL IgE anti-DNP followed by 100 ng/mL DNP-BSA) that we refer to as IgE/antigen (Fig. 2). Both stimuli induced degranulation, which was quantified by β-hexosaminidase and histamine release. With IgE/antigen, β-hexosaminidase release (p-nitrophenolate absorbance) increased by 65.4±6.8% above basal (n = 16; P<0.001), whereas histamine increased from the basal value of 0.156±0.151 µM towards 0.521±0.186 µM (n = 10; P<0.05). With A23187, β-hexosaminidase release increased by 187±18.9% above basal (n = 12; P<0.001), whereas histamine increased towards 2.43±0.330 µM (n = 12; P<0.001). Thus, the ability of naphthoquinones to reduce β-hexosaminidase release was quantified for both stimuli, whereas effects upon histamine were only quantified with the A23187 stimulus, given the low histamine release and poor signal to noise achieved with IgE/antigen.
Before treatment with A23187, cells were incubated with individual naphthoquinones during 15 min, at 37°C. After that, A23187 1 µM was added and cells incubated for 30 min, at 37°C (Fig. 2B). Compounds were freshly diluted prior to cell exposure using EBSS supplemented with 0.1% BSA [21]. β-hexosaminidase and histamine release was quantified in supernatants, whereas the MTT cell viability assay was performed on adherent cells.
The release of β-hexosaminidase from stimulated-RBL-2H3 cells was measured as previously described. In a 96-wells plate, 50 µl of substrate solution [p-nitrophenyl N-acetyl-D-glucosamine 1.3 mg/ml in citrate buffer (pH 4.5)] were added to 30 µl of supernatant. The plate was incubated at 37°C, during 1 h. The reaction was stopped by the addition of 80 µl of NaOH 0.5 M and the reaction product, p-nitrophenolate, was measured spectrophotometrically at 405 nm, in a microplate reader (Multiskan ASCENT Thermo®).

Assay [5] relates to hyaluronidase from bovine tests (type IV-S; EC 3.2.1.35). As to the kind of experiment: Hyaluronidase inhibition, cell-free (Morgan-Elson). Format: biochemical. The following applies: 100 µM; maximal inhibition, mean±SEM. The method, then:
The reaction product, N-acetyl-sugar, was quantified according Morgan-Elson colour reaction with minor modifications. The Morgan-Elson reaction was started by addition of 25 µl disodium tetraborate 0.8 M and subsequent heating in a boiling water bath during 3 min. After cooling, 750 µl p-dimethylaminobenzaldehyde (DMAB) was added and the reaction mixture was incubated at 37°C for 20 min. […] The measurement was made spectrophotometrically, at 560 nm, in a microplate reader (Multiskan ASCENT Thermo®), [24]. Sodium cromoglycate was used as a positive control for inhibition.

Another assay has as its system leukotriene production. On the set-up: method as in PMID 20460770. The following applies: by inhibiting 5-lipoxygenase translocation to the nuclear membrane; cited from earlier work.

Consider `CC1=CC(=O)c2ccccc2C1=O` [Menadione, menadione], for which the IC50 was 5 µM in assay [1]; 0.34 ± 0.018 µM in assay [2] (Rattus norvegicus, RBL-2H3, IgE/antigen evoked release, read-out: IC50 for decrease of LTC4 levels); 128 ± 9.38 µM against soybean lipoxidase (cell-free assay). For the same molecule, the “Effect on leukotriene (LT) C4 levels evoked by IgE/antigen (in words)” value is listed as “strongly decreased LTC4 levels” in assay [2] (5 nM (lowest concentration tested)); “full inhibition” in assay [2] (5 µM); “completely abrogated” in assay [2] (5 µM, listed as menadione). This molecule also registered an inhibition at 183.5 µM on soybean lipoxidase (183.5 µM, maximal inhibition) of 83.4 ± 6.8%. Also, the inhibition at 5 µM with RBL-2H3 cells [3] and in the assay on RBL-2H3 cells [4] was < 15% each time. In assay [5], the “Hyaluronidase inhibition (%)” value is listed as 23.8±6.06 (100 µM) %. In addition, the “Concentrations reported to reduce leukotriene production” value in the assay on leukotriene production is 50 to 200 µM.

Values taken from article PMC3938571, “Modulation of Basophils' Degranulation and Allergy-Related Enzymes by Monomeric and Dimeric Naphthoquinones” (PLoS ONE, 2014).
